Test results taken from ChEMBL document CHEMBL1777790, “Discovery of novel HCV polymerase inhibitors using pharmacophore-based virtual screening” (Bioorg Med Chem Lett, 2011).
Activity calls are given as the source filed them. No cut-off for these calls is given here.

What was measured:
[1] = Cytotoxicity against human HuH7 cells; type: cell-based, Huh-7
[2] = tested on: Hepatitis C virus subtype 1b; assay: Inhibition of HCV genotype 1b NS5B RNA dependent RNA polymerase activity at 20 uM
[3] = tested on: Hepatitis C virus; assay: Antiviral activity against HCV in human HuH7 cells by replicon assay; type: functional, organism-based, Hepacivirus hominis; conditions: Huh-7; for Activity: Hepacivirus hominis

| inhibition [2] | EC50 [3] [µM] | Compound | CC50 [1] [µM] | Activity [3] |
| --- | --- | --- | --- | --- |
| 54% | 2.16 | Cn1ncc([N+](=O)[O-])c1C(=O)Nc1ccc2[nH]c(-c3ccccc3)nc2c1 | 34.5 | – |
| 9% | – | CCC(=O)Nc1ccc(SC#N)c(C(F)(F)F)c1 | 45.8 | – |
| 20% | – | O=C(Nc1ccc2[nH]c(-c3ccccc3)nc2c1)c1ccccc1 | 20 | inactive |
| – | – | O=C(Nc1cccc(Br)c1)c1ccc(Br)c(S(=O)(=O)Nc2ccccn2)c1 | > 50 | – |
| – | – | COC(=O)c1ccc(C(=O)OC)c(NS(C)(=O)=O)c1 | 43.5 | – |
| inactive | – | O=C(Nc1ccc2[nH]c(-c3ccc(Cl)cc3)nc2c1)C1C2CC3CC(C2)CC1C3 (centres undefined) | < 5 | inactive |
| – | – | CC(=O)Nc1ccc2nc(-c3ccccn3)[nH]c2c1 | 24.8 | – |
| 13% | – | O=C1NN(c2ccc(Cl)c(Cl)c2)C(=O)/C1=C/c1ccc(N2CCOCC2)c([N+](=O)[O-])c1 | 27 | – |
| 19.7% | – | Nc1ccc(C(=O)Nc2ccc3[nH]c(-c4ccccc4)nc3c2)cc1 | < 5 | inactive |
| 18.5% | – | CC(=O)Nc1ccc2[nH]c(-c3cccs3)nc2c1 | 20 | inactive |
| – | – | CC(=O)Nc1ccc2[nH]c(-c3ccccn3)nc2c1 | – | inactive |
| – | – | CCCS(=O)(=O)c1ccc2[nH]c(NC(=O)OC)nc2c1 | < 5 | – |
| 8% | – | CS(=O)(=O)N(Cc1ccccc1)c1ccc(C(=O)NCc2ccco2)cc1 | 32.7 | – |
| – | – | C=CCNC(=O)c1ccc(CN(c2cccc(Cl)c2)S(C)(=O)=O)cc1 | 33 | – |
| – | – | COc1cc(/C=N/Nc2nc3ccccc3s2)ccc1OC(=O)c1ccco1 | 30.5 | – |
| – | – | O=C(Nc1ccc2[nH]c(-c3cccnc3)nc2c1)c1ccco1 | 20 | inactive |

| inhibition [2] | EC50 [3] [µM] | Compound | CC50 [1] [µM] | Activity [3] |
| --- | --- | --- | --- | --- |
| 42.4% | – | O=C(Nc1ccc2[nH]c(-c3ccccn3)nc2c1)c1ccco1 | 20 | inactive |
| – | – | O=C(O)CNC(=O)/C(=C\c1cccc([N+](=O)[O-])c1)NC(=O)c1ccc(Br)o1 | > 50 | – |
| – | – | O=C(Nc1ccc(F)cc1)c1ccc(Cl)c(S(=O)(=O)N2CCOCC2)c1 | 15.6 | – |
| – | – | Cc1ccc(C(=O)Nc2ccc(F)cc2)cc1S(=O)(=O)N1CCOCC1 | 16.5 | – |
| – | – | CCOc1cc(NC(=O)c2ccco2)c(OCC)cc1NC(=O)CC | 36.1 | – |
| inactive | – | O=C(Nc1ccc2[nH]c(-c3ccccc3)nc2c1)c1ccco1 | < 5 | inactive |
| – | – | O=C(Nc1ccc(NC(=O)c2cccs2)cc1Cl)c1ccco1 | 18 | – |
| 14% | – | Cn1ncc(Cl)c1C(=O)Nc1ccc2[nH]c(-c3ccccc3)nc2c1 | < 5 | inactive |
| – | – | O=C(COc1ccccc1Cl)Nc1ccc(Oc2ccc(F)cc2)c(C(F)(F)F)c1 | 14.2 | – |
| 42% | – | CC(=O)Nc1ccc2[nH]c(-c3ccco3)nc2c1 | 25 | inactive |
| – | – | C=CCNS(=O)(=O)c1ccc(OC)c(OC)c1 | 48.6 | – |
| – | – | CCOc1cc(NC(=O)CCl)c(OCC)cc1NC(C)=O | > 50 | – |
| 48% | – | C=C(C)C(=O)Nc1ccc(NC(=O)C(=C)C)c(OC(F)(F)C(F)F)c1 | 29 | inactive |
| 37.7% | 8.3 | Cn1cc([N+](=O)[O-])c(C(=O)Nc2ccc3[nH]c(-c4ccccc4)nc3c2)n1 | 17.3 | – |
| 90% | – | COC(=O)c1ccc(C(=O)Nc2ccc3[nH]c(-c4ccccc4)nc3c2)cc1 | < 5 | inactive |
